Patent US10428080B2, “TBK/IKK inhibitor compounds and uses thereof” (Merck Patent GmbH, priority 2015, dated 2019)
Counter-ions that a name gives are not always drawn.

How the values were obtained:
[1] = target: T1, TBK1 (Homo sapiens, UniProt Q9UHD2); assay: TBK Biochemical Assay; settings: read-out: TBK1 IC50
T1 sequence (Q9UHD2 1-729): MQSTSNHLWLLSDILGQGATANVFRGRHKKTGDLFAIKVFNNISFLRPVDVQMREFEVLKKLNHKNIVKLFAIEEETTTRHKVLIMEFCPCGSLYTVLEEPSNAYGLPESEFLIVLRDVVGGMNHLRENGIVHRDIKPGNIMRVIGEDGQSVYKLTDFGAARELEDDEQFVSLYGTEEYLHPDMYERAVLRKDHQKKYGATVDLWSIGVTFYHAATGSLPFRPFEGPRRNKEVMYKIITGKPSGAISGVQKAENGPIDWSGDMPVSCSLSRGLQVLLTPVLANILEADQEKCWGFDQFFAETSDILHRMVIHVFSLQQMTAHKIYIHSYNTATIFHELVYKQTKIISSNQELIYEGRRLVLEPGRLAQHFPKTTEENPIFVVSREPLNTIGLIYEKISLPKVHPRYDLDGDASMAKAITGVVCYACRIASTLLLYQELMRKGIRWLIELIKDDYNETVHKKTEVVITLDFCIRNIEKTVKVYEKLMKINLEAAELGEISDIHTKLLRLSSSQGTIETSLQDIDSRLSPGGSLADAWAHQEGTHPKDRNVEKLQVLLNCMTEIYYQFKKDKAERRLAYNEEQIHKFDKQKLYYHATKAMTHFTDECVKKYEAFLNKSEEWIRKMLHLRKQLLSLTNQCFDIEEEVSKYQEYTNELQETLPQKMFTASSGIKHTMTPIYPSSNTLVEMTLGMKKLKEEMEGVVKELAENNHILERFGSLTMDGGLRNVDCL
In short: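 Caliper LabChip mobility-shift readout of substrate and product after 90 min of TBK1 reaction at 25° C and stop-buffer addition. Compounds tested in 1:4 serial dilution over 10 points from 30 uM final at 1% DMSO; staurosporine 10 uM final defines full inhibition.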

[2] = target: T2, IKKε (Homo sapiens, UniProt Q14164); assay: IKKe Biochemical Assay; settings: read-out: IKKε IC50
T2 sequence (Q14164 1-716): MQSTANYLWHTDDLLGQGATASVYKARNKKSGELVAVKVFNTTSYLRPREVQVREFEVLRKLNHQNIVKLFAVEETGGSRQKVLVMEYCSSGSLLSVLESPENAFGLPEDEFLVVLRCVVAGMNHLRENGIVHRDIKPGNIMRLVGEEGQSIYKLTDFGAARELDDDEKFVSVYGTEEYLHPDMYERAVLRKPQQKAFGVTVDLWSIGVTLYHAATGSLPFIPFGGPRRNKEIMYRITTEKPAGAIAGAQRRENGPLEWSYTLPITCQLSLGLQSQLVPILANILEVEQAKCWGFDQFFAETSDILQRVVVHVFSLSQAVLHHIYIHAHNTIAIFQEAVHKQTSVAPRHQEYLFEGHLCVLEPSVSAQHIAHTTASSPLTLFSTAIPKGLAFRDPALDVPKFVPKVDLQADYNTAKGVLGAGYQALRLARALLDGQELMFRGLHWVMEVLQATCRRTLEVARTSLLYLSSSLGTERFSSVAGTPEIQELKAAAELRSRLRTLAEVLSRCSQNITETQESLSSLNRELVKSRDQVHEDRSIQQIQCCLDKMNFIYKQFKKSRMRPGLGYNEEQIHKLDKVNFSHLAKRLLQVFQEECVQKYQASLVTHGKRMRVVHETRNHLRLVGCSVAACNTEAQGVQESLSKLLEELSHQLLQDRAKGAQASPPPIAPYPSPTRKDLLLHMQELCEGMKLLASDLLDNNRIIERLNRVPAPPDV
In short: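 Activity was measured as mobility-shift separation of phosphorylated from unphosphorylated substrate on a LabChip EZ Reader. Compound was titrated from 30 uM final in 10 points, 1:4 steps, with 1% DMSO, and enzyme plus substrate reacted 90 min at 25° C before stop buffer. Control wells held 10 uM staurosporine.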

IC50 [1] [nM]	IC50 [2] [nM]	Structure (SMILES)
100 to 1000	100 to 1000	COc1cc(C(=O)N(C)C)ccc1-c1cc2ncc(Cl)c(-c3ccc(OC4CCOCC4)c(C#N)c3)c2o1 [Compound 265, 4-(6-chloro-7-(3-cyano-4-(tetrahydro-2H-pyran-4-yloxy)phenyl)furo[3,2-b]pyridin-2-yl)-3-methoxy-N,N-dimethylbenzamide]
1000 to 5000	> 5000	CN(CCO)C(=O)c1ccc(-c2cc3ncc(Cl)c(-c4ccc(OC5CCOCC5)c(C#N)c4)c3o2)c(F)c1 [Compound 267, 4-(6-chloro-7-(3-cyano-4-(tetrahydro-2H-pyran-4-yloxy)phenyl)furo[3,2-b]pyridin-2-yl)-3-fluoro-N-(2-hydroxyethyl)-N-methylbenzamide]
100 to 1000	100 to 1000	COc1cc(C(=O)N(C)CCO)ccc1-c1cc2ncc(C)c(-c3ccc(NC4CCOCC4)c(C#N)c3)c2o1 [Compound 268, 4-(7-(3-cyano-4-(tetrahydro-2H-pyran-4-ylamino)phenyl)-6-methylfuro[3,2-b]pyridin-2-yl)-N-(2-hydroxyethyl)-3-methoxy-N-methylbenzamide]
> 5000	> 5000	COc1cc(C(=O)N(C)CCO)ccc1-c1cc2ncc(C3CC3)c(-c3ccc(NC4CCOCC4)c(C#N)c3)c2o1 [Compound 305, 4-(7-[3-cyano-4-[(oxan-4-yl)amino]phenyl]-6-cyclopropylfuro[3,2-b]pyridin-2-yl)-N-(2-hydroxyethyl)-3-methoxy-N-methylbenzamide]
> 5000	> 5000	COc1cc(C(=O)N(C)CCO)ccc1-c1cc2ncc(C3CC3)c(-c3ccc(OC4CCOCC4)c(C#N)c3)c2o1 [Compound 306, 4-(7-(3-cyano-4-(tetrahydro-2H-pyran-4-yloxy)phenyl)-6-cyclopropylfuro[3,2-b]pyridin-2-yl)-N-(2-hydroxyethyl)-3-methoxy-N-methylbenzamide]
1000 to 5000	1000 to 5000	COc1cc(C(=O)N(C)CCO)cnc1-c1cc2ncc(C)c(-c3ccc(OC4CCOCC4)c(C#N)c3)c2o1 [Compound 330, 6-(7-(3-cyano-4-(tetrahydro-2H-pyran-4-yloxy)phenyl)-6-methylfuro[3,2-b]pyridin-2-yl)-N-(2-hydroxyethyl)-5-methoxy-N-methylnicotinamide]

Second part, the compound before the results:

Structure (SMILES)	IC50 [1] [nM]	IC50 [2] [nM]
COc1cc(C(=O)N(C)C)ccc1-c1cc2ncc(Cl)c(-c3ccc(NC4CCOCC4)c(C#N)c3)c2o1 [Compound 266, 4-(6-chloro-7-(3-cyano-4-(tetrahydro-2H-pyran-4-ylamino)phenyl)furo[3,2-b]pyridin-2-yl)-3-methoxy-N,N-dimethylbenzamide]	100 to 1000	100 to 1000
COc1cc(C(=O)N(C)C)ccc1-c1cc2ncc(C)c(-c3ccc(OC4CCOCC4)c(C#N)c3)c2o1 [Compound 269, 4-(7-(3-cyano-4-(tetrahydro-2H-pyran-4-yloxy)phenyl)-6-methylfuro[3,2-b]pyridin-2-yl)-3-methoxy-N,N-dimethylbenzamide hydrochloride]	100 to 1000	100 to 1000
COc1cc(C(=O)N(C)C)cnc1-c1cc2nccc(-c3ccc(NC4CCOCC4)c(C#N)c3)c2o1 [Compound 270, 6-(7-(3-cyano-4-(tetrahydro-2H-pyran-4-ylamino)phenyl)furo[3,2-b]pyridin-2-yl)-5-methoxy-N,N-dimethylnicotinamide hydrochloride]	< 100	< 100
COc1nc(C(=O)N(C)C)ccc1-c1cc2nccc(-c3ccc(OC4CCOCC4)c(C#N)c3)c2o1 [Compound 271, 5-(7-(3-cyano-4-(tetrahydro-2H-pyran-4-yloxy)phenyl)furo[3,2-b]pyridin-2-yl)-6-methoxy-N,N-dimethylpicolinamide]	< 100	< 100
COc1cc(C(=O)N(C)C)cnc1-c1cc2nccc(-c3ccc(OC4CCOCC4)c(C#N)c3)c2o1 [Compound 274, 6-(7-(3-cyano-4-(tetrahydro-2H-pyran-4-yloxy)phenyl)furo[3,2-b]pyridin-2-yl)-5-methoxy-N,N-dimethylnicotinamide hydrochloride]	< 100	< 100
CN(C)C(=O)c1ccc(-c2cc3nccc(-c4ccc(C5(N6CCOCC6)CC5)c(C#N)c4)c3o2)cc1 [Compound 287, 4-(7-[3-cyano-4-[1-(morpholin-4-yl)cyclopropyl]phenyl]furo[3,2-b]pyridin-2-yl)-N,N-dimethylbenzamide hydrochloride]	> 5000	> 5000
COc1cc(C(=O)N(C)C)ccc1-c1cc2nccc(-c3cc(C#N)c(OC4CCOCC4)c(C4CC4)c3)c2o1 [Compound 307, 4-(7-(3-cyano-5-cyclopropyl-4-(tetrahydro-2H-pyran-4-yloxy)phenyl)furo[3,2-b]pyridin-2-yl)-3-methoxy-N,N-dimethylbenzamide]	100 to 1000	100 to 1000
COc1cc(C(=O)N(C)C)ccc1-c1cc2nccc(-c3cc(C#N)c(NC4CCOCC4)c(C4CC4)c3)c2o1 [Compound 308, 4-(7-(3-cyano-5-cyclopropyl-4-(tetrahydro-2H-pyran-4-ylamino)phenyl)furo[3,2-b]pyridin-2-yl)-3-methoxy-N,N-dimethylbenzamide]	> 5000	> 5000
COc1cc(C(=O)N(C)C)cnc1-c1cc2ncc(C)c(-c3ccc(NC4CCOCC4)c(C#N)c3)c2o1 [Compound 319, 6-(7-(3-cyano-4-(tetrahydro-2H-pyran-4-ylamino)phenyl)-6-methylfuro[3,2-b]pyridin-2-yl)-5-methoxy-N,N-dimethylnicotinamide]	1000 to 5000	1000 to 5000
COc1cc(C(=O)N(C)C)cnc1-c1cc2ncc(C)c(-c3ccc(OC4CCOCC4)c(C#N)c3)c2o1 [Compound 320, 6-(7-(3-cyano-4-(tetrahydro-2H-pyran-4-yloxy)phenyl)-6-methylfuro[3,2-b]pyridin-2-yl)-5-methoxy-N,N-dimethylnicotinamide]	1000 to 5000	1000 to 5000
COc1cc(C(=O)N(C)C)cnc1-c1cc2ncc(C)c(-c3ccc(OC4CCOCC4)c(C#N)n3)c2o1 [Compound 321, 6-[7-[6-cyano-5-(oxan-4-yloxy)pyridin-2-yl]-6-methylfuro[3,2-b]pyridin-2-yl]-5-methoxy-N,N-dimethylpyridine-3-carboxamide hydrochloride]	100 to 1000	100 to 1000
COc1cc(C(=O)N(C)C)cnc1-c1cc2ncc(C3CC3)c(-c3ccc(OC4CCOCC4)c(C#N)c3)c2o1 [Compound 323, 6-(7-(3-cyano-4-(tetrahydro-2H-pyran-4-yloxy)phenyl)-6-cyclopropylfuro[3,2-b]pyridin-2-yl)-5-methoxy-N,N-dimethylnicotinamide]	> 5000	> 5000
COc1cc(C(=O)N(C)CCO)cnc1-c1cc2ncc(C(C)C)c(-c3ccc(OC4CCOCC4)c(C#N)c3)c2o1 [Compound 333, 6-[7-[3-cyano-4-(oxan-4-yloxy)phenyl]-6-(propan-2-yl)furo[3,2-b]pyridin-2-yl]-N-(2-hydroxyethyl)-5-methoxy-N-methylpyridine-3-carboxamide]	> 5000	> 5000
COc1cc(C(=O)N(C)C)cnc1-c1cc2ncc(Cl)c(-c3ccc(OC4CCOCC4)c(C#N)c3)c2o1 [Compound 336, 6-[6-chloro-7-[3-cyano-4-(oxan-4-yloxy)phenyl]furo[3,2-b]pyridin-2-yl]-5-methoxy-N,N-dimethylpyridine-3-carboxamide hydrochloride]	1000 to 5000	1000 to 5000
